Assay results as given in US8802597B2, “Herbicidal pyrimidines” (E I du Pont de Nemours and Company, priority 2003, dated 2014).
Where two headings read alike, the source gives them in different places.

How the values were obtained:
Format in all cases: in vivo
[1] = tested on: common (oilseed) sunflower (Helianthus annuus); test: Test C pre/postemergence; conditions: Preemergence
Method in brief: (§1)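 Rating scale 0–100: 0 means no effect, 100 complete control; taken visually 12 to 14 days post-treatment versus controls. Pre- and postemergence greenhouse applications, postemergence at 1- to 4-leaf stage, non-phytotoxic solvent with surfactant as carrier.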

corn (Zea mays) = test: Test C pre/postemergence; conditions: for Corn plant response rating (crop injury, 0 = no effect, 100 = complete kill) at 31 g/ha / Corn plant response rating (crop injury, 0 = no effect, 100 = complete kill) at 62 g/ha / Corn plant response rating (crop injury, 0 = no effect, 100 = complete kill) at 125 g/ha / Corn plant response rating (crop injury, 0 = no effect, 100 = complete kill) at 250 g/ha / Corn plant response rating (crop injury, 0 = no effect, 100 = complete kill) at 500 g/ha: Zea mays
Method in brief: as §1

[2] = tested on: chickweed (Stellaria media); test: Test C postemergence; conditions: for pest or weed control at 62 g/ha / Chickweed plant response rating: 62 g ai/ha; for Plant response rating, Chickweed: scale 0 to 100
Text: Seeds or nutlets of plant species selected from bermudagrass (Cynodon dactylon), Surinam grass (Brachiaria decumbens), cocklebur (Xanthium strumarium), corn (Zea mays), crabgrass (Digitaria sanguinalis), woolly cupgrass (Eriochloa villosa), giant foxtail (Setaria faberii), goosegrass (Eleusine indica), johnsongrass (Sorghum halepense), kochia (Kochia scoparia), lambsquarters (Chenopodium album), morningglory (Ipomoea coccinea), eastern black nightshade (Solanum ptycanthum), yellow nutsedge (Cyperus esculentus), pigweed (Amaranthus retroflexus), common ragweed (Ambrosia elatior), soybean (Glycine max), common (oilseed) sunflower (Helianthus annuus), and velvetleaf (Abutilon theophrasti) were planted and treated preemergence with test chemicals formulated in a non-phytotoxic solvent mixture which included a surfactant.
At the same time, plants selected from these crop and weed species and also winter barley (Hordeum vulgare), blackgrass (Alopecurus myosuroides), canarygrass (Phalaris minor), chickweed (Stellaria media), downy brome (Bromus tectorum), green foxtail (Setaria viridis), Italian ryegrass (Lolium multiflorum), wheat (Triticum aestivum), wild oat (Avena fatua) and windgrass (Apera spica-venti) were treated with postemergence applications of some of the test chemicals formulated in the same manner. Plants ranged in height from 2 to 18 cm (1- to 4-leaf stage) for postemergence treatments. Plant species in the flooded paddy test consisted of rice (Oryza sativa), umbrella sedge (Cyperus difformis), duck salad (Heteranthera limosa) and barnyardgrass (Echinochloa crus-galli) grown to the 2-leaf stage for testing. Treated plants and controls were maintained in a greenhouse for 12 to 14 days, after which time all species were compared to controls and visually evaluated. Plant response ratings, summarized in Table C, are based on a scale of 0 to 100 where 0 is no effect and 100 is complete control. A dash (-) response means no test result.

[3] = Helianthus annuus, pre-emergence, 62 g ai/ha, scale 0 to 100, 0 no effect, 100 complete control, read-out: Plant response rating, Sunflower
[4] = Helianthus annuus, pre-emergence, 125 g ai/ha, scale 0 to 100, read-out: Plant response rating, Sunflower
[5] = Helianthus annuus, pre-emergence, 250 g ai/ha, scale 0 to 100, read-out: Plant response rating, Sunflower
[6] = post-emergence, Postemergence, 62 g ai/ha, scale 0 to 100 (0 no effect, 100 complete control), read-out: Corn plant response rating
[7] = post-emergence, Postemergence, 125 g ai/ha, scale 0 to 100 (0 no effect, 100 complete control), read-out: Corn plant response rating
[8] = post-emergence, Postemergence, 250 g ai/ha, scale 0 to 100
[9] = pre-emergence, Preemergence, 62 g ai/ha, scale 0 to 100, 0 no effect, 100 complete control, read-out: Plant response rating, Corn
[10] = pre-emergence, Preemergence, 125 g ai/ha, scale 0 to 100, read-out: Plant response rating, Corn
[11] = pre-emergence, Preemergence, 250 g ai/ha, scale 0 to 100
[12] = Stellaria media, post-emergence, scale 0 to 100 (0 no effect, 100 complete control), read-out: Chickweed plant response rating
[13] = Stellaria media, post-emergence, 250 g ai/ha, scale 0 to 100, read-out: Plant response rating, Chickweed
[14] = 62 g ai/ha, scale 0 to 100, 0 no effect, 100 complete control
[15] = Postemergence, 62 g ai/ha, scale 0 to 100 (0 no effect, 100 complete control)
[16] = Postemergence, 125 g ai/ha, scale 0 to 100 (0 no effect, 100 complete control)
[17] = Postemergence, 250 g ai/ha, scale 0 to 100
[18] = Postemergence, 500 g ai/ha, scale 0 to 100
[19] = Preemergence, 62 g ai/ha, scale 0 to 100, 0 no effect, 100 complete control
[20] = Preemergence, 125 g ai/ha, scale 0 to 100
[21] = Preemergence, 250 g ai/ha, scale 0 to 100
[22] = Preemergence, 500 g ai/ha, scale 0 to 100
[23] = scale 0 to 100 (0 no effect, 100 complete control)
[24] = 16 g ai/ha, scale 0 to 100, 0 no effect, 100 complete control
[25] = 31 g ai/ha, scale 0 to 100, 0 no effect, 100 complete control
[26] = Preemergence, 16 g ai/ha, scale 0 to 100, 0 no effect, 100 complete control
[27] = Preemergence, 31 g ai/ha, scale 0 to 100, 0 no effect, 100 complete control

| SMILES | Plant response rating, Sunflower [1, 14] | Plant response rating, Sunflower ([1]; 125 g ai/ha, scale 0 to 100) | Plant response rating, Sunflower ([1]; 250 g ai/ha, scale 0 to 100) | Corn plant response rating (corn (Zea mays); [15]) | Corn plant response rating (corn (Zea mays); [16]) | Plant response rating, Corn (corn (Zea mays); [17]) | Plant response rating, Corn (corn (Zea mays); [19]) | Plant response rating, Corn (corn (Zea mays); [20]) | Plant response rating, Corn (corn (Zea mays); [21]) | Chickweed plant response rating [2, 23] | Plant response rating, Chickweed ([2]; 125 g ai/ha) | Plant response rating, Chickweed ([2]; 250 g ai/ha) | Plant response rating, Sunflower [1, 25] | Plant response rating (scale of 0 to 100), Corn (corn (Zea mays); Postemergence, 31 g ai/ha) | Plant response rating, Corn (corn (Zea mays); [27]) | Plant response rating (scale of 0 to 100), Chickweed ([2]; 31 g ai/ha) | also measured |
| --- | --- | --- | --- | --- | --- | --- | --- | --- | --- | --- | --- | --- | --- | --- | --- | --- | --- |
| COC(=O)c1nc(C2CC2)nc(N)c1Cl [Compound 9, methyl 6-amino-5-chloro-2-cyclopropyl-4-pyrimidinecarboxylate] | – | – | – | – | – | – | – | – | – | – | – | – | – | – | – | – | pest or weed control at 31 g/ha ([1]; Helianthus annuus, pre-emergence, 31 g ai/ha, scale 0 to 100, 0 no effect, 100 complete control, read-out: Plant response rating, Sunflower): 100%; pest or weed control at 62 g/ha [1, 3]: 100%; pest or weed control at 125 g/ha [1, 4]: 100%; pest or weed control at 250 g/ha [1, 5]: 100%; Corn plant response rating (crop injury, 0 = no effect, 100 = complete kill) at 31 g/ha (corn (Zea mays); post-emergence, Postemergence, 31 g ai/ha, read-out: Plant response rating (scale of 0 to 100), Corn): 45%; Corn plant response rating (crop injury, 0 = no effect, 100 = complete kill) at 62 g/ha (corn (Zea mays); [6]): 55%; Corn plant response rating (crop injury, 0 = no effect, 100 = complete kill) at 125 g/ha (corn (Zea mays); [7]): 65%; Corn plant response rating (crop injury, 0 = no effect, 100 = complete kill) at 250 g/ha (corn (Zea mays); [8]): 95%; Corn plant response rating (crop injury, 0 = no effect, 100 = complete kill) at 31 g/ha (corn (Zea mays); pre-emergence, Preemergence, 31 g ai/ha, scale 0 to 100, 0 no effect, 100 complete control, read-out: Plant response rating, Corn): 0%; Corn plant response rating (crop injury, 0 = no effect, 100 = complete kill) at 62 g/ha (corn (Zea mays); [9]): 5%; Corn plant response rating (crop injury, 0 = no effect, 100 = complete kill) at 125 g/ha (corn (Zea mays); [10]): 60%; Corn plant response rating (crop injury, 0 = no effect, 100 = complete kill) at 250 g/ha (corn (Zea mays); [11]): 75%; pest or weed control at 31 g/ha ([2]; Stellaria media, post-emergence, 31 g ai/ha, read-out: Plant response rating (scale of 0 to 100), Chickweed): 15%; pest or weed control at 62 g/ha [2, 12]: 85%; pest or weed control at 125 g/ha ([2]; Stellaria media, post-emergence, 125 g ai/ha, scale 0 to 100, read-out: Plant response rating, Chickweed): 100%; pest or weed control at 250 g/ha [2, 13]: 100% |
| COC(=O)CNc1nc(C2CC2)nc(C(=O)OC)c1Br [Compound 10] | 0 | 0 | 0 | 0 | 0 | 0 | 0 | 0 | 0 | 0 | 0 | 20 | – | – | – | – | Plant response rating, Sunflower ([1]; 500 g ai/ha, scale 0 to 100): 0; Plant response rating, Corn (corn (Zea mays); [18]): 0; Plant response rating, Corn (corn (Zea mays); [22]): 0; Plant response rating, Chickweed ([2]; 500 g ai/ha): 70 |
| COCc1nc(C2CC2)nc(N)c1Br [Compound 11] | 0 | 0 | – | 0 | 0 | – | 0 | 0 | – | 0 | 0 | – | 0 | 0 | 0 | 0 | Plant response rating, Sunflower [1, 24]: 0; Plant response rating (scale of 0 to 100), Corn (corn (Zea mays); Postemergence, 16 g ai/ha): 0; Plant response rating, Corn (corn (Zea mays); [26]): 0; Plant response rating (scale of 0 to 100), Chickweed ([2]; 16 g ai/ha): 0 |
| CCCOC(=O)c1nc(C2CC2)nc(N)c1Br [Compound 15] | 65 | 100 | 100 | 15 | 15 | 55 | 0 | 15 | 45 | 20 | 50 | 65 | – | – | – | – | Plant response rating, Sunflower ([1]; 500 g ai/ha, scale 0 to 100): 100; Plant response rating, Corn (corn (Zea mays); [18]): 75; Plant response rating, Corn (corn (Zea mays); [22]): 60; Plant response rating, Chickweed ([2]; 500 g ai/ha): 85 |
| CCCCOC(=O)c1nc(C2CC2)nc(N)c1Br [Compound 16] | 85 | 100 | 100 | 0 | 20 | 55 | 15 | 20 | 75 | 0 | 20 | 35 | 20 | 0 | 0 | 0 | – |
| CC(C)COC(=O)c1nc(C2CC2)nc(N)c1Br [Compound 17] | 95 | 100 | 100 | 0 | 0 | 20 | 20 | 35 | 75 | 0 | 55 | 85 | 60 | 0 | 0 | 0 | – |
| COC(=O)c1nc(C2CC2)nc(N=CN(C)C)c1Br [Compound 19] | 70 | 90 | – | 0 | 35 | – | 0 | 0 | – | 5 | 5 | – | 25 | 0 | 0 | 0 | Plant response rating, Sunflower [1, 24]: 10; Plant response rating (scale of 0 to 100), Corn (corn (Zea mays); Postemergence, 16 g ai/ha): 0; Plant response rating, Corn (corn (Zea mays); [26]): 0; Plant response rating (scale of 0 to 100), Chickweed ([2]; 16 g ai/ha): 0 |
| Nc1nc(C2CC2)nc(C(=O)OCc2ccccc2)c1Br [Compound 22, phenylmethyl 6-amino-5-bromo-2-cyclopropyl-4-pyrimidinecarboxylate] | – | – | – | – | – | – | – | – | – | – | – | – | – | – | – | – | pest or weed control at 62 g/ha [1, 3]: 90%; pest or weed control at 125 g/ha [1, 4]: 95%; pest or weed control at 250 g/ha [1, 5]: 100%; pest or weed control at 500 g/ha ([1]; Helianthus annuus, pre-emergence, 500 g ai/ha, scale 0 to 100, read-out: Plant response rating, Sunflower): 100%; Corn plant response rating (crop injury, 0 = no effect, 100 = complete kill) at 62 g/ha (corn (Zea mays); [6]): 30%; Corn plant response rating (crop injury, 0 = no effect, 100 = complete kill) at 125 g/ha (corn (Zea mays); [7]): 40%; Corn plant response rating (crop injury, 0 = no effect, 100 = complete kill) at 250 g/ha (corn (Zea mays); [8]): 60%; Corn plant response rating (crop injury, 0 = no effect, 100 = complete kill) at 500 g/ha (corn (Zea mays); post-emergence, Postemergence, 500 g ai/ha, scale 0 to 100): 65%; Corn plant response rating (crop injury, 0 = no effect, 100 = complete kill) at 62 g/ha (corn (Zea mays); [9]): 40%; Corn plant response rating (crop injury, 0 = no effect, 100 = complete kill) at 125 g/ha (corn (Zea mays); [10]): 50%; Corn plant response rating (crop injury, 0 = no effect, 100 = complete kill) at 250 g/ha (corn (Zea mays); [11]): 65%; Corn plant response rating (crop injury, 0 = no effect, 100 = complete kill) at 500 g/ha (corn (Zea mays); pre-emergence, Preemergence, 500 g ai/ha, scale 0 to 100): 65%; pest or weed control at 62 g/ha [2, 12]: 30%; pest or weed control at 125 g/ha ([2]; Stellaria media, post-emergence, 125 g ai/ha, scale 0 to 100 (0 no effect, 100 complete control), read-out: Chickweed plant response rating): 60%; pest or weed control at 250 g/ha [2, 13]: 85%; pest or weed control at 500 g/ha ([2]; Stellaria media, post-emergence, 500 g ai/ha, scale 0 to 100, read-out: Plant response rating, Chickweed): 90% |
